Data reported in patent US5602277A, “Substituted benzene derivatives useful as neuraminidase inhibitors” (priority 1995, dated 1997).
Structures can show the parent of a compound that is named as a salt.

Tested on: not given
Conditions: cited from earlier work

Row | Compound | activity in vivo
1 | CC(=O)N[C@H]1[C@H]([C@H](O)[C@H](O)CO)OC(C(=O)O)=C[C@@H]1O [DANA, 2-deoxy-2,3-didehydro-N-acetylneuraminic acid] | inactive

Tested on: influenza virus neuraminidase
Type: biochemical
Conditions: compound @ 3.3 mM; substrate 75 μM, pH 6.5, 5 min at 37° C.

Row | Compound | % Inhibition [%]
2 | O=C(O)c1ccc(NC(=O)C(F)(F)F)cc1 [Example 9, 4-(Trifluoroacetamido)benzoic acid] | 56

Same assay, conditions: compound @ 3.5 mM; substrate 75 μM, pH 6.5, 5 min at 37° C.

Row | Compound | % Inhibition [%]
3 | N=C(N)Cc1cccc(C(=O)O)c1 [Example 23, 3-(2-Amino-2-imino)ethylbenzoic acid complex with water (5:1)] | 22

Same assay, conditions: substrate 75 μM, pH 6.5, 5 min at 37° C.

Row | Compound | IC50 [mM] | % Inhibition at 7 nM [%]
4 | 3-[(Aminoiminomethyl)amino]-4-[(methylamino)carbonyl]benzoic acid hydrochloride, complex with water and methanol (4:4:4:1 and 5:5:5:1) [Example 53] | 0.005 | –
5 | CC(=O)Nc1ccc(C(=O)O)cc1CC(O)CO (single isomer, unassigned; isomer a) [Example 35, 4-Acetylamino-3-(2',3'-dihydroxypropyl)benzoic acid, solvate with water [5:1] (Isomer A)] | 20 | 25
6 | CC(=O)Nc1ccc(C(=O)O)cc1CC(O)CO (single isomer, unassigned; isomer b) [Example 36, 4-Acetylamino-3-(2',3'-dihydroxypropyl)benzoic acid, solvate with water [4:3](Isomer B)] | – | 35
7 | N=C(N)Nc1ccccc1 [Example 1, Phenylguanidine carbonate hydrate (2:1:1)] | – | 44
8 | N=C(N)NC(=N)Nc1ccccc1 [Example 3, 1-Phenylbiguanide] | 5.5 | 75
9 | CC(=O)Nc1ccc(C(=O)O)cc1 [Example 4, 4-Acetylaminobenzoic acid] | – | 39
10 | CC(=O)Nc1ccc(S(=O)(=O)O)cc1 [Example 6, 4-Acetylaminobenzenesulfonic acid hydrate (4:1)] | – | 30
11 | CC(=O)Nc1ccc(P(=O)(O)O)cc1 [Example 7, 4-Acetylaminophenylphosphonic acid] | – | 32
12 | CC(=S)Nc1ccc(C(=O)O)cc1 [Example 10, 4-Thioacetamidobenzoic acid] | 1 | –
13 | CS(=O)(=O)Nc1ccc(C(=O)O)cc1 [Example 16, 4-[(Methylsulfonyl)amino]benzoic acid] | – | 34
14 | N=C(N)Nc1cccc(C(=O)O)c1 [Example 17, 3-Guanidinobenzoic acid hydrochloride (2:1)] | 5 | –
15 | N#CN=C(N)Nc1cccc(C(=O)O)c1 [Example 18, 3-[Amino(cyanoimino)methyl]aminobenzoic acid hydrate (4:1)] | – | 68
16 | N#CNc1cccc(C(=O)O)c1 [Example 21, 3-Cyanoaminobenzoic acid hydrate (5:1)] | 4 | –
17 | CC(=O)Nc1ccc(CC(=O)O)cc1 [Example 26, 4-(Acetamido)phenylacetic acid] | – | 15
18 | CNC(=O)c1ccc(C(=O)O)cc1 [Example 27, 4-(Methylaminocarbonyl)benzoic acid] | – | 27
19 | CC(=O)Nc1ccc(C(=O)O)cc1CO.[Na+].[OH-] [Example 31, 4-Acetylamino-3-hydroxymethylbenzoic acid, complex with NaOH [5:3]] | – | 31
20 | CC(=O)Nc1ccc(C(=O)O)cc1CCO [Example 33, β-(2-N-Acetylamino-5-carboxyphenyl)ethanol] | – | 42
21 | CC(=O)Nc1ccc(C(=O)O)cc1N [Example 37, 4-Acetylamino-3-aminobenzoic acid hydrochloride (2:1)] | 14 | 28
22 | CC(C)C(=O)Nc1ccc(C(=O)O)cc1NC(=N)N [Example 40, 3-[(Aminoiminomethyl)amino]-4-(2-methylpropionylamino)benzoic acid hydrate [2:1]] | 1 | –
23 | CC(=O)Nc1ccc(C(=O)O)cc1C=NO [Example 42, 4-Acetylamino-3-[(hydroxylimino)methyl]benzoic acid hydrate (4:1)] | 5.5 | –
24 | CS(=O)(=O)Nc1ccc(C(=O)O)cc1NC(=N)N [Example 43, 3-[(Aminoiminomethyl)amino]-4-[(methylsulfonyl)amino]benzoic acid, solvate with water (2:1)] | 0.1 | –
25 | COc1ccc(C(=O)O)cc1NC(=N)N [Example 46, 3-[(Aminoiminomethyl)amino]-4-methoxybenzoic acid hydrochloride (1:1)] | – | 46
26 | N=C(N)Nc1cc(C(=O)O)ccc1O [Example 47, 3-[(Aminoiminomethyl)amino]-4-hydroxybenzoic acid hydrochloride (1:1)] | – | 33
27 | N=C(N)Nc1cc(NC(=N)N)cc(C(=O)O)c1 [Example 49, 3,5-Bis-[(aminoiminomethyl)amino]benzoic acid hydrochloride, solvate with ethanol (10:15:2)] | 1.5 | –
28 | N=C(N)Nc1cc(N)cc(C(=O)O)c1 [Example 50, Sodium 3-amino-5-[(aminoimino)methyl]aminobenzoate hydrate] | 2 | –
29 | N=C(N)Nc1cc(C=NO)cc(C(=O)O)c1 [Example 51, 3-[(Aminoiminomethyl)amino]-5-[(N-hydroxylimino)methyl]benzoic acid hydrate (4:3)] | 0.8 | –
30 | CC(C)OC(C)C.CS(=O)(=O)Nc1c(CO)cc(C(=O)O)cc1NC(=N)N [Example 52, 3-(Aminoiminomethyl)amino-5-hydroxymethyl-4-(methylsulfonyl)aminobenzoic acid hydrate complex with diisopropyl ether (10:10:1)] | 2 | –

Tested on: HA
Conditions: cited from earlier work

Row | Compound | inhibition of HA in vitro
31 | CC(=O)N[C@H]1[C@H]([C@H](O)[C@H](O)CO)OC(C(=O)O)=C[C@@H]1O [DANA, 2-deoxy-2,3-didehydro-N-acetylneuraminic acid] | inhibit
